Reference: patent US4559323A, “A41030 Antibiotics” (Eli Lilly and Company, priority 1984, dated 1985)
Converted amounts (≈) assume the structure as drawn. Like-named read-outs stand apart in the source and are kept apart here.

What was measured:
[1] = Electrometric titration (pKa); type: physicochemical; conditions: electrometric titration in 66% dimethylformamide in water
Solubility in solvents = type: physicochemical; conditions: solvents as named
Excerpt: The seven antibiotic factors are recovered from the fermentation and are obtained as a mixture, the A41030 complex. It will be recognized that the ratio of the factors in the A41030 complex will vary, depending upon the fermentation conditions used. The individual factors […], and G are separated and isolated as individual compounds, as hereinafter described.

Hemophilus influenzae = assay: Agar-dilution MIC; type: cell-based; conditions: 24 hours
Streptococcus pyogenes = assay: Agar-dilution MIC; type: cell-based; conditions: 24 hours, Streptococcus pyogenes C203
Excerpt: (§1) The agar-dilution procedure described by the International Collaborative study (ICS) group was used to determine the minimum inhibitory concentrations (MIC's).

[2] = system: Streptococcus sp. (Group D); assay: Agar-dilution MIC; type: cell-based; conditions: 24 hours
Excerpt: as §1

Bacteroides fragilis = assay: Agar-dilution MIC (anaerobes); type: cell-based
Excerpt: as §1

Bacteroides corrodens [3] = assay: Agar-dilution MIC (anaerobes); type: cell-based; conditions: Table 12; 24-hour; B. corrodens 1874
Excerpt: (§2) The A41030 antibiotics, factors A, B, and C, are active against a genus of anaerobic bacteria identified as Bacteroides sp., the 24-hour MIC values being determined by the agar-dilution method, and are set forth in Table 12, which follows.

Bacteroides vulgatis [4] = assay: Agar-dilution MIC (anaerobes); type: cell-based; conditions: Table 12; 24-hour; B. vulgatis 1563
Excerpt: as §2

B. thetaiotaomicron = type: cell-based
Excerpt: as §1

Clostridium difficile [5] = type: cell-based; conditions: Table 16
Excerpt: The A41030 antibiotic factors A, B, C, D, E, F, and G, are also active against a number of strains of Clostridium difficile, as determined by the agar-dilution method.

Clostridium perfringens = type: cell-based; conditions: Table 14; Clostridium perfringens 81
[6] = system: Peptococcus asaccharolyticus; assay: Agar-dilution MIC (anaerobes); type: cell-based; conditions: Table 15
Description: (§3) The MIC values were determined by the agar-dilution method, and are recorded in Table 15, which follows.

Peptococcus prevoti = assay: Agar-dilution MIC (anaerobes); type: cell-based
[7] = system: Peptostreptococcus anaerobius; assay: Agar-dilution MIC (anaerobes); type: cell-based
[8] = system: Bacteroides melaninogenicus; assay: Agar-dilution MIC (anaerobes); type: cell-based; conditions: Table 14; Bacteroides melaninogenicus 2736
Fusobacterium symbiosum = assay: Agar-dilution MIC (anaerobes); type: cell-based; conditions: Table 14; Fusobacterium symbiosum 1470
[9] = system: Fusobacterium necrophorum; assay: Agar-dilution MIC (anaerobes); type: cell-based; conditions: Table 14; Fusobacterium necrophorum 6054A
Pc. constellatus = assay: Agar-dilution MIC (anaerobes); type: cell-based, Peptococcus constellatus; conditions: Table 15; Pc. constellatus 1468
Description: as §3

Salmonella typhi = assay: Agar-dilution MIC; type: cell-based; conditions: Table 17, 24 hours
S. pyogenes = assay: In vivo oral activity against S. pyogenes in mice
Bacteroides corrodens [10] = assay: Agar-dilution MIC (anaerobes); type: cell-based; conditions: Table 14; Bacteroides corrodens 1874
Bacteroides vulgatis [11] = assay: Agar-dilution MIC (anaerobes); type: cell-based; conditions: Table 14; Bacteroides vulgatis 1211
Clostridium difficile [12] = type: cell-based; conditions: Table 14; Clostridium difficile 2994

N[C@H]1C(=O)N[C@@H]2Cc3ccc(c(Cl)c3)Oc3cc4cc(c3O)Oc3ccc(cc3Cl)[C@@H](O)[C@@H]3NC(=O)C(NC(=O)[C@@H]4NC(=O)[C@@H](NC2=O)c2cc(O)cc(c2)Oc2cc1ccc2O)c1ccc(O)c(c1)-c1c(O)cc(O)cc1[C@@H](C(=O)O)NC3=O [A41030 factor B]
pKa, first titratable group [1]: about 5.6
pKa, second titratable group [1]: ~7.5
Solubility (Solubility in solvents): soluble in the same solvents as factor A
MIC (Hemophilus influenzae; Table 17, Haemophilus influenzae 251): 2 µg/mL (≈ 1.67 µM)
MIC (Hemophilus influenzae; Table 17, Haemophilus influenzae Brun): 8 µg/mL (≈ 6.67 µM)
MIC (Hemophilus influenzae; Table 18, Haemophilus influenzae 76): 4 µg/mL (≈ 3.34 µM)
MIC (Hemophilus influenzae; Table 18, Haemophilus influenzae 312): 4 µg/mL (≈ 3.34 µM)
MIC (Hemophilus influenzae; Table 18, Haemophilus influenzae 4842): 4 µg/mL (≈ 3.34 µM)
MIC (Hemophilus influenzae; Table 18, Haemophilus influenzae 16836): 4 µg/mL (≈ 3.34 µM)
MIC (Hemophilus influenzae; Table 18, Haemophilus influenzae Bond): 4 µg/mL (≈ 3.34 µM)
MIC (Hemophilus influenzae; Table 18, Haemophilus influenzae C.L.): 8 µg/mL (≈ 6.67 µM)
MIC (Hemophilus influenzae; Table 18, Haemophilus influenzae Mx366): 4 µg/mL (≈ 3.34 µM)
MIC (Hemophilus influenzae; Table 18, Haemophilus influenzae Mx371): 4 µg/mL (≈ 3.34 µM)
MIC (Streptococcus pyogenes; Table 17): 0.25 µg/mL (≈ 0.209 µM)
MIC (Streptococcus pyogenes; Table 18): 0.125 µg/mL (≈ 0.104 µM)
MIC ([2]; Table 17, Streptococcus sp. Group D 9960): 1 µg/mL (≈ 0.834 µM)
MIC ([2]; Table 17, Streptococcus sp. Group D X66): 1 µg/mL (≈ 0.834 µM)
MIC ([2]; Table 18, Streptococcus sp. Group D 2041): 0.5 µg/mL (≈ 0.417 µM)
MIC ([2]; Table 18, Streptococcus sp. Group D 2058): 0.5 µg/mL (≈ 0.417 µM)
MIC ([2]; Table 18, Streptococcus sp. Group D 8043): 0.25 µg/mL (≈ 0.209 µM)
MIC ([2]; Table 18, Streptococcus sp. Group D 9901): 1 µg/mL (≈ 0.834 µM)
MIC ([2]; Table 18, Streptococcus sp. Group D 9960): 0.5 µg/mL (≈ 0.417 µM)
MIC ([2]; Table 18, Streptococcus sp. Group D 12253F): 0.5 µg/mL (≈ 0.417 µM)
MIC ([2]; Table 18, Streptococcus sp. Group D Mx161): 0.25 µg/mL (≈ 0.209 µM)
MIC ([2]; Table 18, Streptococcus sp. Group D X66): 0.25 µg/mL (≈ 0.209 µM)
MIC (Bacteroides fragilis; Table 12, 24-hour, B. fragilis 2): 32 µg/mL (≈ 26.7 µM)
MIC (Bacteroides fragilis; Table 12, 24-hour, B. fragilis 9): 32 µg/mL (≈ 26.7 µM)
MIC (Bacteroides fragilis; Table 12, 24-hour, B. fragilis 103): 32 µg/mL (≈ 26.7 µM)
MIC (Bacteroides fragilis; Table 12, 24-hour, B. fragilis 104): 32 µg/mL (≈ 26.7 µM)
MIC (Bacteroides fragilis; Table 12, 24-hour, B. fragilis 106): 32 µg/mL (≈ 26.7 µM)
MIC (Bacteroides fragilis; Table 12, 24-hour, B. fragilis 107): 32 µg/mL (≈ 26.7 µM)
MIC (Bacteroides fragilis; Table 12, 24-hour, B. fragilis 108): 32 µg/mL (≈ 26.7 µM)
MIC (Bacteroides fragilis; Table 12, 24-hour, B. fragilis 110): 64 µg/mL (≈ 53.4 µM)
MIC (Bacteroides fragilis; Table 12, 24-hour, B. fragilis 111): 32 µg/mL (≈ 26.7 µM)
MIC (Bacteroides fragilis; Table 12, 24-hour, B. fragilis 112): 32 µg/mL (≈ 26.7 µM)
MIC (Bacteroides fragilis; Table 12, 24-hour, B. fragilis 113): 32 µg/mL (≈ 26.7 µM)
MIC (Bacteroides fragilis; Table 12, 24-hour, B. fragilis 1451): 64 µg/mL (≈ 53.4 µM)
MIC (Bacteroides fragilis; Table 12, 24-hour, B. fragilis 1470): 64 µg/mL (≈ 53.4 µM)
MIC (Bacteroides fragilis; Table 12, 24-hour, B. fragilis 1877): 32 µg/mL (≈ 26.7 µM)
MIC (Bacteroides fragilis; Table 12, 24-hour, B. fragilis 9032): 32 µg/mL (≈ 26.7 µM)
MIC (Bacteroides fragilis; Table 14, Bacteroides fragilis 111): 64 µg/mL (≈ 53.4 µM)
MIC (Bacteroides fragilis; Table 14, Bacteroides fragilis 1877): 32 µg/mL (≈ 26.7 µM)
MIC (Bacteroides fragilis; Table 14, Bacteroides fragilis 1936B): 32 µg/mL (≈ 26.7 µM)
MIC (Bacteroides corrodens [3]): 32 µg/mL (≈ 26.7 µM)
MIC (Bacteroides vulgatis [4]): 32 µg/mL (≈ 26.7 µM)
MIC (B. thetaiotaomicron; Table 12, 24-hour, B. thetaiotaomicron 1438): 32 µg/mL (≈ 26.7 µM)
MIC (B. thetaiotaomicron; Table 12, 24-hour, B. thetaiotaomicron 1900A): 128 µg/mL (≈ 107 µM)
MIC (B. thetaiotaomicron; Table 14, Bacteroides thetalotaomicron 1438): 32 µg/mL (≈ 26.7 µM)
MIC (Clostridium difficile [5]; C. difficile 78): 0.5 µg/mL (≈ 0.417 µM)
MIC (Clostridium difficile [5]; C. difficile 107B): 0.5 µg/mL (≈ 0.417 µM)
MIC (Clostridium difficile [5]; C. difficile 111F): 1.0 µg/mL (≈ 0.834 µM)
MIC (Clostridium difficile [5]; C. difficile 1153): 1.0 µg/mL (≈ 0.834 µM)
MIC (Clostridium difficile [5]; C. difficile 2634): 1.0 µg/mL (≈ 0.834 µM)
MIC (Clostridium difficile [5]; C. difficile 3424-5B): 1.0 µg/mL (≈ 0.834 µM)
MIC (Clostridium difficile [5]; C. difficile 3816): 1.0 µg/mL (≈ 0.834 µM)
MIC (Clostridium difficile [5]; C. difficile 3950): 1.0 µg/mL (≈ 0.834 µM)
MIC (Clostridium difficile [5]; C. difficile 6890): 1.0 µg/mL (≈ 0.834 µM)
MIC (Clostridium difficile [5]; C. difficile 8484): 1.0 µg/mL (≈ 0.834 µM)
MIC (Clostridium difficile [5]; C. difficile A-194): 1.0 µg/mL (≈ 0.834 µM)
MIC (Clostridium difficile [5]; C. difficile A-195): 1.0 µg/mL (≈ 0.834 µM)
MIC (Clostridium difficile [5]; C. difficile A-196): 1.0 µg/mL (≈ 0.834 µM)
MIC (Clostridium difficile [5]; C. difficile A-279): 1.0 µg/mL (≈ 0.834 µM)
MIC (Clostridium difficile [5]; C. difficile A-280): 0.5 µg/mL (≈ 0.417 µM)
MIC (Clostridium difficile [5]; C. difficile A-281): 1.0 µg/mL (≈ 0.834 µM)
MIC (Clostridium difficile [5]; C. difficile WAL-2112): 1.0 µg/mL (≈ 0.834 µM)
MIC (Clostridium difficile [5]; C. difficile WAL-3657): 1.0 µg/mL (≈ 0.834 µM)
MIC (Clostridium difficile [5]; C. difficile WAL-4268): 0.5 µg/mL (≈ 0.417 µM)
MIC (Clostridium perfringens): 0.5 µg/mL (≈ 0.417 µM)
MIC ([6]; Pc. asaccharolyticus 1302): 0.125 µg/mL (≈ 0.104 µM)
MIC ([6]; Pc. asaccharolyticus 1344): 0.5 µg/mL (≈ 0.417 µM)
MIC (Peptococcus prevoti; Table 14, Peptococcus prevoti 1281): ≤ 0.25 µg/mL
MIC (Peptococcus prevoti; Table 15, Pc. prevoti 1281): 0.5 µg/mL (≈ 0.417 µM)
MIC (Peptococcus prevoti; Table 15, Pc. prevoti 1293): 0.25 µg/mL (≈ 0.209 µM)
MIC (Peptococcus prevoti; Table 15, Pc. prevoti 1407): 0.5 µg/mL (≈ 0.417 µM)
MIC ([7]; Table 14, Peptostreptococcus anaerobius 1428): ≤ 0.25 µg/mL
MIC ([7]; Table 15, Ps. anaerobius 8): 0.25 µg/mL (≈ 0.209 µM)
MIC ([7]; Table 15, Ps. anaerobius 52): 0.5 µg/mL (≈ 0.417 µM)
MIC ([7]; Table 15, Ps. anaerobius 59): 0.25 µg/mL (≈ 0.209 µM)
MIC ([7]; Table 15, Ps. anaerobius 1418): 0.06 µg/mL (≈ 0.05 µM)
MIC ([7]; Table 15, Ps. anaerobius 1428): 0.25 µg/mL (≈ 0.209 µM)
MIC ([7]; Table 15, Ps. anaerobius 1451): 0.25 µg/mL (≈ 0.209 µM)
MIC ([7]; Table 15, Ps. anaerobius 1477): 0.125 µg/mL (≈ 0.104 µM)
MIC [8]: 4 µg/mL (≈ 3.34 µM)
MIC (Fusobacterium symbiosum): 1.0 µg/mL (≈ 0.834 µM)
MIC [9]: 8 µg/mL (≈ 6.67 µM)
MIC (Pc. constellatus): 0.5 µg/mL (≈ 0.417 µM)
MIC (Salmonella typhi; Salmonella typhi 1335): > 128 µg/mL
MIC (Salmonella typhi; Salmonella typhi X514): > 128 µg/mL
in vivo oral activity (S. pyogenes): > 300 mg./kg.X2
MIC (Bacteroides corrodens [10]): 64 µg/mL (≈ 53.4 µM)
MIC (Bacteroides vulgatis [11]): 32 µg/mL (≈ 26.7 µM)
MIC (Clostridium difficile [12]): 32 µg/mL (≈ 26.7 µM)
